Converted amounts (≈) assume the structure as drawn.
Assays:
[1] = inhibition of DNA synthesis in CHO-KI cells (interactions with mammalian DNA), fluorophotometric; type: cell-based, Chinese hamster; details: hamster, cho-k1 cells, measure of interactions with mammalian DNA, read-out: ID50 (concentration at which DNA synthesis is inhibited by 50%)
Source text: (§1) Tables 9 and 10 show the minimum inhibitory concentrations (MIC values), as a measure of the antibacterial activity, and the ID50 values, as a measure of the interactions with mammalian DNA of a substance, both for compounds according to the invention and for reference compounds from the prior art (EP 520 240).
The ID50 is understood as meaning the concentration of a substance at which DNA synthesis in cells from ovaries of the Chinese hamster (CHO-KI) is inhibited by 50%. This value is determined after incubation of the corresponding substances in decreasing dilution stages over defined periods of time. For this, the DNA synthesis in CHO-KI cells is determined in comparison with controls by means of fluorophotometric methods.

Staph. aureus 133 = assay: minimum inhibitory concentration, series dilution method on Iso-Sensitest agar; type: cell-based; details: Staphylococcus aureus, 37° C., about 20 hours
Procedure: as §1
(§2) The minimum inhibitory concentrations (MIC) were determined by a series dilution method on Iso-Sensitest agar (Oxoid). For each test substance, a series of agar plates each comprising concentrations of the active compound decreasing by double dilution in each case was prepared. The agar plates were inoculated with a multipoint inoculator (Denley). Overnight cultures of the pathogens which had been diluted beforehand such that each inoculation point comprised about 10^4 colony-forming particles were used for the inoculation. The inoculated agar plates were incubated at 37° C. and the germ growth was read off after about 20 hours. The MIC value (μg/ml) indicates the lowest active compound concentration at which no growth was detectable with the naked eye.

E. coli Neumann = assay: as above; type: cell-based; details: Escherichia coli, 37° C., about 20 hours
Procedure: as §1, §2

Staph. aureus ICB 25701 = assay: as above; type: cell-based; details: Staphylococcus aureus, ICB25701, 37° C., about 20 hours
Procedure: as §1, §2

Ps. aeruginosa Walter = assay: as above; type: cell-based; details: Pseudomonas aeruginosa, 37° C., about 20 hours
Procedure: as §1, §2

Row | SMILES | IC50 [1] [µg/mL] | MIC (Staph. aureus 133) [µg/mL] | MIC (E. coli Neumann) [µg/mL] | MIC (Staph. aureus ICB 25701) [µg/mL] | MIC (Ps. aeruginosa Walter) [µg/mL]
1 | N[C@@H]1CCC=C2CN(c3c(F)cc4c(=O)c(C(=O)O)cn(C5CC5)c4c3F)C[C@@H]21 (racemic) [Example 1, 7-[(3aRS,4RS)-4-amino-2,3,3a,4,5,6-hexahydro-1H-isoindol-2-yl]-1-cyclopropyl-6,8-difluoro-1,4-dihydro-4-oxo-3-quinolinecarboxylic acid] | 4 (≈ 9.96 µM) | ≤ 0.015 | ≤ 0.015 | ≤ 0.015 | 0.125 (≈ 0.311 µM)
2 | N[C@@H]1CCC=C2CN(c3cc4c(cc3F)c(=O)c(C(=O)O)cn4C3CC3)C[C@@H]21 (racemic) [Example 2, 7-[(3aRS,4RS)-4-amino-2,3,3a,4,5,6-hexahydro-1H-isoindol-2-yl]-1-cyclopropyl-6-fluoro-1,4-dihydro-4-oxo-3-quinolinecarboxylic acid] | 2 (≈ 5.22 µM) | ≤ 0.015 | ≤ 0.015 | 0.125 (≈ 0.326 µM) | 1 (≈ 2.61 µM)
3 | N[C@@H]1CCC=C2CN(c3c(F)cc4c(=O)c(C(=O)O)cn(C5CC5)c4c3Cl)C[C@@H]21 (racemic) [Example 3, 7-[(3aRS,4RS)-4-amino-2,3,3a,4,5,6-hexahydro-1H-isoindol-2-yl]-8-chloro-1-cyclopropyl-6-fluoro-1,4-dihydro-4-oxo-3-quinolinecarboxylic acid] | 0.1 (≈ 0.239 µM) | ≤ 0.015 | ≤ 0.015 | ≤ 0.015 | 0.5 (≈ 1.2 µM)
4 | N[C@@H]1CCC=C2CN(c3c(F)cc4c(=O)c(C(=O)O)cn([C@@H]5C[C@@H]5F)c4c3F)C[C@@H]21 (relative stereo) [Example 4, 7-[(3aRS,4RS)-4-amino-2,3,3a,4,5,6-hexahydro-1H-isoindol-2-yl]-6,8-difluoro-1-(cis-2-fluorocyclopropyl)-1,4-dihydro-4-oxo-3-quinolinecarboxylic acid] | 2 (≈ 4.77 µM) | ≤ 0.015 | ≤ 0.015 | 0.03 (≈ 0.0715 µM) | 0.25 (≈ 0.596 µM)
5 | NC1C=CCC2CN(c3c(F)cc4c(=O)c(C(=O)O)cn(C5CC5)c4c3F)CC12 (centres unmarked) [Example 17 B, 7(4-amino-1,3,3a,4,7,7a-hexahydro-isoindol-2-yl)-1-cyclopropyl-6,8-difluoo-1,4-dihydro-4-oxo-3-quinolinecarboxylic acid, reference compound] | 0.01 (≈ 0.0249 µM) | ≤ 0.015 | ≤ 0.015 | 0.03 (≈ 0.0747 µM) | 0.25 (≈ 0.623 µM)
6 | NC1C=CCC2CN(c3c(F)cc4c(=O)c(C(=O)O)cn(C5CC5)c4c3Cl)CC12 (centres unmarked) [Example 18 A, 7(4-amino-1,3,3a4,7,7a-hexahydro-isoindol-2-yl)-8-chloro-1-cyclopropyl-6-luoro-1,4-dihydro-4-oxo-3-quinolinecarboxylic acid, reference compound] | 0.06 (≈ 0.144 µM) | ≤ 0.015 | ≤ 0.015 | ≤ 0.015 | 0.25 (≈ 0.598 µM)
7 | NC1C=CCC2CN(c3cc4c(cc3F)c(=O)c(C(=O)O)cn4C3CC3)CC12 (centres unmarked) [Example 19, 7(4-amino-1,3,3a,4,7,7a-hexahydro-isoindol-2-yl)-1-cyclopropyl-6-fluoro-14-dihydro-4-oxo-3-quinolinecarboxylic acid, reference compound] | 1 (≈ 2.61 µM) | ≤ 0.015 | ≤ 0.015 | 1 (≈ 2.61 µM) | 1 (≈ 2.61 µM)

— US5703094A, “Quinolone- and naphthyridonecarboxylic acid derivatives” (Bayer Aktiengesellschaft, priority 1995, dated 1997)
